According to ChEMBL document CHEMBL5325473, “Conformational study into N-alkyl-N'-aryl ureas to inform drug discovery” (Bioorg Med Chem, 2023):
In brackets after ≈: the same amount, converted by molar mass.

Key:
[1] = target: Cyclin-dependent kinase 2 (Homo sapiens, UniProt P24941); assay: Binding affinity to human Avi-tagged CDK2 expressed in Escherichia coli BL21 DE3 assessed as dissociation constant by Surface plasmon resonance analysis
[2] = target: Epidermal growth factor receptor (Mus musculus, UniProt Q01279); assay: Displacement of probe N-(4-(4-(3-((4-((3-chloro-4-fluorophenyl)amino)-7-methoxyquinazolin-6-yl)oxy)propyl)piperazin-1-yl)-4-oxobutyl)-3-(5,5-difluoro-7,9-dimethyl-5H-5l4,6l4-dipyrrolo[1,2-c:2',1'-f][1,3,2]diazaborinin-3-yl)propenamide from C-terminal His-tagged wild type mouse EGFR incubated for 30 mins by probe displacement based TR-FRET assay
[3] = Chromatographic hydrophobicity index, log D of the compound by HPLC analysis; type: physicochemical
[4] = Aqueous solubility of compound at pH 7.4; type: physicochemical

Chain of Epidermal growth factor receptor (Q01279 whole entry): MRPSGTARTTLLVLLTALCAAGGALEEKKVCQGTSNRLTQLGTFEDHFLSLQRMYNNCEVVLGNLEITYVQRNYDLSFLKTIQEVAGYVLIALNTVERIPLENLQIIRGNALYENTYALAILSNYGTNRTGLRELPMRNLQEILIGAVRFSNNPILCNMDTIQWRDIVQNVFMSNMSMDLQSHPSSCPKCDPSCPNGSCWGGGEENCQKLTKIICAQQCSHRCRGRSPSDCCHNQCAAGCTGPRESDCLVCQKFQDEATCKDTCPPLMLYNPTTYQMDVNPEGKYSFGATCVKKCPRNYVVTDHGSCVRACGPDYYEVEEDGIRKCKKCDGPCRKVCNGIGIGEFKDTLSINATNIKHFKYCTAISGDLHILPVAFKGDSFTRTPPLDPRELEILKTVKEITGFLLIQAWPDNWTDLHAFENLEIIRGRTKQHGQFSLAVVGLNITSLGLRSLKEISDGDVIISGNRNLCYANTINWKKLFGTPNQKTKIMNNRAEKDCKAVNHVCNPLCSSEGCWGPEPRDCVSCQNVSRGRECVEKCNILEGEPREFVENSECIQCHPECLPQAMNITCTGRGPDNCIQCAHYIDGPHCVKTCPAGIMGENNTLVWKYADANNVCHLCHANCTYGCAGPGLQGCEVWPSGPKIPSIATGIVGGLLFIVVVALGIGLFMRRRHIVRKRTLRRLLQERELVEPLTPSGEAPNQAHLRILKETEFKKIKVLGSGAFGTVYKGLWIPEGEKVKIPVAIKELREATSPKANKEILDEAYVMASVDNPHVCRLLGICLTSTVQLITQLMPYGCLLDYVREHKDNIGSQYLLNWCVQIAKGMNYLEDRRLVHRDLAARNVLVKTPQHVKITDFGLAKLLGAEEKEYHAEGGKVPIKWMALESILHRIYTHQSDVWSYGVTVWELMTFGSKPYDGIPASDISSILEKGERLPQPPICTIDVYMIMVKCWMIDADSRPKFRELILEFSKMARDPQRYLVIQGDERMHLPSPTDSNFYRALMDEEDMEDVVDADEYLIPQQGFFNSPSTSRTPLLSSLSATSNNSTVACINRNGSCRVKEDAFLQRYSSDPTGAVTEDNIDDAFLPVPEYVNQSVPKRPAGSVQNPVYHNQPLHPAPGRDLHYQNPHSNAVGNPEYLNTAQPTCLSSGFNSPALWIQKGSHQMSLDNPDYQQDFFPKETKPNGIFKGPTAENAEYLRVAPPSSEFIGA

Row | Structure (SMILES) | Kd [1] | IC50 [2] | chromatographic logD [3] | solubility [4]
1 | CN(C(=O)Nc1ccccc1)C1CCCC1 | 2000 µM | > 1000 µM | 2.8 | 98 µM (≈ 21.4 µg/mL)
2 | CN(C(=O)N(C)C1CCCC1)c1ccccc1 | 3160 µM | 126 µM | 3.6 | 77 µM (≈ 17.9 µg/mL)
3 | CN(C(=O)Nc1ccccn1)C1CCCC1 | 2510 µM | 794 µM | 2.1 | 102 µM (≈ 22.4 µg/mL)
4 | CN(C(=O)N(C)C1CCCC1)c1ccccn1 | 15800 µM | > 1000 µM | 2.2 | 114 µM (≈ 26.6 µg/mL)
5 | CN(C(=O)NC1CCCC1)c1ccccc1 | 7940 µM | 100 µM | 2.7 | 104 µM (≈ 22.7 µg/mL)
6 | CN(C(=O)NC1CCCC1)c1ccccn1 | 1580 µM | > 1000 µM | 3 | 87 µM (≈ 19.1 µg/mL)
7 | O=C(Nc1ccccn1)NC1CCCC1 | 398 µM | 398 µM | 2.4 | 93 µM (≈ 19.1 µg/mL)
8 | O=C(Nc1ccccc1)NC1CCCC1 | 1000 µM | 200 µM | 2.4 | 85 µM (≈ 17.4 µg/mL)
